Each structure is given as a SMILES string.

This test concerns the target T1, HMG-CoA reductase (Homo sapiens, UniProt P04035).
T1 construct: endogenous in cells; host or cells: HepG2 (Korea Cell Line Bank)
T1 sequence (P04035 1-888): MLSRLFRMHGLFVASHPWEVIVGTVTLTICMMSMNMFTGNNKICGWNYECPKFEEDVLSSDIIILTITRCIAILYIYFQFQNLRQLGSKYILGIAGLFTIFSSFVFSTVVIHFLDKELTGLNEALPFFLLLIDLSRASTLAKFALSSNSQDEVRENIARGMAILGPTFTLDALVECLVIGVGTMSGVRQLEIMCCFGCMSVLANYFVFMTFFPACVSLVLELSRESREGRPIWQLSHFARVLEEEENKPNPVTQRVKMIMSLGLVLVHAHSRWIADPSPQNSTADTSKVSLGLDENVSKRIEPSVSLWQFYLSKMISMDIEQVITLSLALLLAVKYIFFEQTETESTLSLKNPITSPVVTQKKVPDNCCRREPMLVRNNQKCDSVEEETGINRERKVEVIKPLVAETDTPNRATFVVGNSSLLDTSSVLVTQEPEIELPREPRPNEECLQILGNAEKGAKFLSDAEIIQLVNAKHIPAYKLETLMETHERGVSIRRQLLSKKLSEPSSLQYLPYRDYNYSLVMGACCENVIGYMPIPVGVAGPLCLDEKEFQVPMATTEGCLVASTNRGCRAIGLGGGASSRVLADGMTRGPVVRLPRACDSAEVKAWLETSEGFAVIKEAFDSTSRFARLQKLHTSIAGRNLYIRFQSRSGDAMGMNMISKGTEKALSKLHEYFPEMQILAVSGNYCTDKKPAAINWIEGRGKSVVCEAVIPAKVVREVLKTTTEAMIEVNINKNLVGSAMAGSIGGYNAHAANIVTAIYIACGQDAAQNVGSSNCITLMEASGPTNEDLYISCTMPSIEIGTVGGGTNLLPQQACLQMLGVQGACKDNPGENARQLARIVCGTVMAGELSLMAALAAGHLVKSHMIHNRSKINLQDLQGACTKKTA
Briefly: HMG-CoA reductase (HMGCR) degradation in HepG2 cells by western blotting. It counts as cell-based. To be noted: treated for 18 hours, ratio of HMG-CoA reductase to GAPDH, read-out: DC50. The procedure:
HepG2, a human liver cancer cell line, was purchased from the Korea Cell Line Bank (KCLB), Seoul, Korea. The passage in cell culture was maintained at P105 to P110.
The compounds of the present invention were completely dissolved in DMSO and used in the experiment. 2×10^5 cells were seeded for each well of a 12-well plate (SPL), and the cells were cultured in the culture medium in a total volume of 2 ml. Each of the compounds of the present invention and comparative compounds was diluted three folds from the highest concentration of 3 μM to the lowest concentration in 10 points and treated for 18 hours.
Each of the compounds the present invention and comparative compounds was diluted three folds from the highest concentration of 3 μM to the lowest concentration of […] in 10 points and was treated for 18 hours.
For SDS-PAGE and Western blotting, 1×RIPA lysis buffer (Rockland, Cat. No. MB-030-0050; Lot no. 39751), 100× Protease Inhibitor Cocktail (Quartett, Cat. No. PPI1015; Lot no. PCO50038424), Pierce™ BCA protein assay kit (ThermoScientific, Cat. No. 23225; Lot no. UC276876), albumin standard (ThermoScientific, Cat. No. 23209; Lot no. UB269561), 4-15% Mini-PROTEAN TGX stain-free gel (Bio-rad, Cat. No. 4568085; Lot no. L007041B), 10× Tris/Glycine/SDS buffer (Bio-rad, Cat. No. 1610732; Lot no. 10000044375B); 10×TBS (Bio-rad, Cat. No. 1706435; Lot no. 1000045140B), 10% Tween 20 (Cat. No. 1610781; Lot no. L004152B), Color protein standard broad range (NEB, Cat. No. P7719S; Lot no. 10040349), 4× Laemmli sample buffer (Bio-rad, Cat. No. 1610747; Lot no. L004133B), β-mercaptoethanol (Sigma-Aldrich, Cat. No. M3148; Lot no. 60-24-2), SuperBlock™ T20 (TBS) blocking buffer (ThermoScientific, Cat. No. 37536; Lot no. UC282578), 1M sodium azide solution (Sigma-Aldrich, Cat. No. 08591-1 mL-F; Lot no. BCBV4989), α-Rabbit pAb to Ms IgG (abcam, Cat. No. ab97046; Lot no. GR3252115-1), α-Goat pAb to Rb IgG (CST, Cat. No. 7074S; Lot no. 28), α-GAPDH (abcam, Cat. No. ab8245), α-HMGCR (GeneTex, Cat. No. GTX54088; Lot no. 821903509), ECL™ Prime western blotting reagents (GE Healthcare, Cat. No. RPN2232; Lot no. 17001655), Ponceau S solution (Sigma-Aldrich, Cat. No. P7170; Lot no. SLBV4112), Difco™ Skim milk (BD, Cat. No. 232100; Lot no. 8346795), and iBlot® 2 NC Regular stacks (Invitrogen, Cat. No. IB23001; Lot no. 2NR110619-02), were used.
For cell harvesting, the cells were first separated from the plate using trypsin and then washed with the medium and PBS. Specifically, the medium was suctioned off and washed with 1 mL of PBS, and PBS was suctioned off. The cells were treated with 0.5 mL TrypLE™ Express at 37° C. for 7 minutes to separate the cells, and then 0.5 mL of complete medium was added to collect 1 mL of cell culture solution. Then, 1 mL of the cell collection solution was centrifuged at 8,000 rpm for 120 seconds, and the supernatant was removed. After washing with 0.2 mL of PBS, the PBS was removed.
For cell lysis, a lysis buffer was added and cell debris was removed to obtain a cell lysate. Specifically, the cells were treated with 70 μL of 1×RIPA buffer containing a protease inhibitor and incubated for 30 minutes on ice. Then, the cells were centrifuged at 4° C. and 15,000 rpm for 10 minutes to obtain a cell lysate.
Then, a standard curve was obtained using the BCA assay, and the protein mass in the lysate was quantified by substituting the curve. The mixture was incubated at 37° C. for 30 minutes using 20 μL of standard or sample solution, and 200 μL of BCA or Bradford solution, and measured at 562 nm absorbance. Samples were prepared by adding 4× sample buffer so that the quantity of protein added to each well was 15 μg.
Sodium dodecyl sulfate polyacrylamide gel electrophoresis (SDS-PAGE) was performed by setting a running time of 100 minutes at 120 V on a 4-15% Mini-PROTEAN TGX stain-free gel (15 well). Transferring was performed on iBlot® 2 NC Mini stacks at P0 mode of the dry blotting system. […]
As usually defined, the DC50 is the concentration at which degradation of the target reaches its halfway point. For `C[C@H]1C=C2C=C[C@H](C)[C@H](CC[C@@H]3C[C@@H](O)CC(=O)O3)[C@H]2[C@@H](OC(=O)C(C)(C)CCC(=O)NCCOCCOCCOCCNc2ccccc2)C1` [Compound 1, (1S,3R,7S,8S,8aR)-8-(2-((2R,4R)-4-hydroxy-6-oxotetrahydro-2H-pyran-2-yl)ethyl)-3,7-dimethyl-1,2,3,7,8,8a-hexahydronaphthalen-1-yl 16,16-dimethyl-13-oxo-1-(phenylamino)-3,6,9-trioxa-12-azaheptadecan-17-oate], the DC50 is over 500 nM. Under `C[C@H]1C=C2C=C[C@H](C)[C@H](CC[C@@H]3C[C@@H](O)CC(=O)O3)[C@H]2[C@@H](OC(=O)C(C)(C)CCC(=O)NCCOCCOCCNc2cccc3c2C(=O)N(C2CCC(=O)NC2=O)C3=O)C1` (stereo partly drawn) [Compound 2, (1S,3R,7S,8S,8aR)-8-(2-((2R,4R)-4-hydroxy-6-oxotetrahydro-2H-pyran-2-yl)ethyl)-3,7-dimethyl-1,2,3,7,8,8a-hexahydronaphthalen-1-yl 5-((2-(2-(2-((2-(2,6-dioxopiperidin-3-yl)-1,3-dioxoisoindolin-4-yl)amino)ethoxy)ethoxy)ethyl)amino)-2,2-dimethyl-5-oxopentanoate] stands under 50 nM; under `C[C@H]1C=C2C=C[C@H](C)[C@H](CC[C@@H]3C[C@@H](O)CC(=O)O3)[C@H]2[C@@H](OC(=O)C(C)(C)CCC(=O)NCCOCCOCCOCCNc2cccc3c2C(=O)N(C2CCC(=O)NC2=O)C3=O)C1` (stereo partly drawn) [Compound 3, (1S,3R,7S,8S,8aR)-8-(2-((2R,4R)-4-hydroxy-6-oxotetrahydro-2H-pyran-2-yl)ethyl)-3,7-dimethyl-1,2,3,7,8,8a-hexahydronaphthalen-1-yl 1-((2-(2,6-dioxopiperidin-3-yl)-1,3-dioxoisoindolin-4-yl)amino)-16,16-dimethyl-13-oxo-3,6,9-trioxa-12-azaheptadecan-17-oate], under 50 nM; under `C[C@H]1C=C2C=C[C@H](C)[C@H](CC[C@@H]3C[C@@H](O)CC(=O)O3)[C@H]2[C@@H](OC(=O)C(C)(C)CCC(=O)NCCOCCOCCOCCOCCNc2cccc3c2C(=O)N(C2CCC(=O)NC2=O)C3=O)C1` (stereo partly drawn) [Compound 4, (1S,3R,7S,8S,8aR)-8-(2-((2R,4R)-4-hydroxy-6-oxotetrahydro-2H-pyran-2-yl)ethyl)-3,7-dimethyl-1,2,3,7,8,8a-hexahydronaphthalen-1-yl 1-((2-(2,6-dioxopiperidin-3-yl)-1,3-dioxoisoindolin-4-yl)amino)-19,19-dimethyl-16-oxo-3,6,9,12-tetraoxa-15-azaicosan-20-oate], under 50 nM.

For `C[C@H]1C=C2C=C[C@H](C)[C@H](CC[C@@H]3C[C@@H](O)CC(=O)O3)[C@H]2[C@@H](OC(=O)C(C)(C)CCC(=O)NCCOCCOCCOCCOCCOCCNc2cccc3c2C(=O)N(C2CCC(=O)NC2=O)C3=O)C1` (stereo partly drawn) [Compound 5, (1S,3R,7S,8S,8aR)-8-(2-((2R,4R)-4-hydroxy-6-oxotetrahydro-2H-pyran-2-yl)ethyl)-3,7-dimethyl-1,2,3,7,8,8a-hexahydronaphthalen-1-yl 1-((2-(2,6-dioxopiperidin-3-yl)-1,3-dioxoisoindolin-4-yl)amino)-22,22-dimethyl-19-oxo-3,6,9,12,15-pentaoxa-18-azatricosan-23-oate], the half-maximal degradation concentration (DC50) is under 50 nM. In the case of `C[C@H]1C=C2C=C[C@H](C)[C@H](CC[C@@H]3C[C@@H](O)CC(=O)O3)[C@H]2[C@@H](OC(=O)C(C)(C)CCC(=O)NCCOCCOCCOCCOCCOCCOCCNc2cccc3c2C(=O)N(C2CCC(=O)NC2=O)C3=O)C1` (stereo partly drawn) [Compound 6, (1S,3R,7S,8S,8aR)-8-(2-((2R,4R)-4-hydroxy-6-oxotetrahydro-2H-pyran-2-yl)ethyl)-3,7-dimethyl-1,2,3,7,8,8a-hexahydronaphthalen-1-yl 1-((2-(2,6-dioxopiperidin-3-yl)-1,3-dioxoisoindolin-4-yl)amino)-25,25-dimethyl-22-oxo-3,6,9,12,15,18-hexaoxa-21-azahexacosan-26-oate], the DC50 is under 50 nM.

With `C[C@H]1C=C2C=C[C@H](C)[C@H](CC[C@@H]3C[C@@H](O)CC(=O)O3)[C@H]2[C@@H](OC(=O)C(C)(C)CCC(=O)NCCOCCOCCOCC(=O)NCC(C)(C)C)C1` [Compound 7, (1S,3R,7S,8S,8aR)-8-(2-((2R,4R)-4-hydroxy-6-oxotetrahydro-2H-pyran-2-yl)ethyl)-3,7-dimethyl-1,2,3,7,8,8a-hexahydronaphthalen-1-yl 2,2,20,20-tetramethyl-5,17-dioxo-7,10,13-trioxa-4,16-diazahenicosan-21-oate], the 50% degradation concentration (DC50) was over 500 nM. Take `Cc1ncsc1-c1ccc(CNC(=O)[C@@H]2C[C@@H](O)CN2C(=O)[C@@H](NC(=O)COCCNC(=O)CCC(C)(C)C(=O)O[C@H]2C[C@@H](C)C=C3C=C[C@H](C)[C@H](CC[C@@H]4C[C@@H](O)CC(=O)O4)[C@H]32)C(C)(C)C)cc1` [Compound 8, (1S,3R,7S,8S,8aR)-8-(2-((2R,4R)-4-hydroxy-6-oxotetrahydro-2H-pyran-2-yl)ethyl)-3,7-dimethyl-1,2,3,7,8,8a-hexahydronaphthalen-1-yl 5-((2-(2-(((S)-1-((2S,4R)-4-hydroxy-2-((4-(4-methylthiazol-5-yl)benzyl)carbamoyl)pyrrolidin-1-yl)-3,3-dimethyl-1-oxobutan-2-yl)amino)-2-oxoethoxy)ethyl)amino)-2,2-dimethyl-5-oxopentanoate]: the DC50 is under 50 nM.

The record behind these values is patent US12479840B2, “HMG-CoA reductase degradation inducing compound” (Uppthera, priority 2020, dated 2025).
